# From patent publication US10544130B2, “Metallo-beta-lactamase inhibitors” (priority 2015, dated 2020)
# Counter-ions that a name gives are not always drawn. Like-named read-outs stand apart in the source and are kept apart here.
# Columns and labels:
# [1] = system: Klebsiella pneumoniae expressing VIM-1 (IHMA599644); format: cell-based; conditions: with imipenem 1 μg/ml; 95% inhibition of bacterial growth
# How it was run: (§1)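 Growth read by absorbance after 22–24 h at 35 °C in CAMHB, with test compound alone or combined with 1 μg/ml imipenem. Inocula came from overnight 35 °C blood-agar colonies, set to a defined OD600 and diluted 1:100. Value is the inhibitor concentration giving synergy.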
# [2] = system: Serratia marcescens expressing IMP-1 (CL5741); format: cell-based; conditions: with imipenem 1 μg/ml; 95% inhibition of bacterial growth
# How it was run: as §1
# [3] = system: Pseudomonas aeruginosa PAO1 MB9798 (efflux+, IMP-1); conditions: imipenem at 2 μg/mL
# How it was run: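 Isogenic PAO1 pair (efflux+ MB9798, efflux− MB9799, both IMP-1) tested by microbroth MIC with fixed imipenem and/or ceftazidime, usually at CLSI breakpoint, plus fixed class A/C inhibitor against AmpC. MBL inhibitor titrated; concentration restoring susceptibility recorded and fold difference between strains taken as efflux extent.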
# [4] = ratio MITC95 PA 9798/MITC95 PA 9799
compound,measurement,setting,value
"NCCNCCNS(=O)(=O)c1ccc(-c2ccc(N)nc2)c(-c2nn[nH]n2)c1S(N)(=O)=O [Example 482, N1-(2-(−2-amineoethylamino)ethyl)-4-(6-aminopyridin-3-yl)-3-(2H-tetrazol-5-yl)benzene-1,2-disulfonamide]",Klebsiella pneumoniae (VIM-1) MITC95,[1],1.563 µM
same,Serratia marcescens (IMP-1) MITC95,[2],0.7813 µM
"C[C@H](CN)NS(=O)(=O)c1ccc(-c2cccc3c2nc(N)n3C)c(-c2nn[nH]n2)c1S(N)(=O)=O [Example 395, (R)-4-(2-amino-1-methyl-1H-benzo[d]imidazol-4-yl)-N^1-(1-aminopropan-2-yl)-3-(2H-tetrazol-5-yl)benzene-1,2-disulfonamide]",Klebsiella pneumoniae (VIM-1) MITC95,[1],1.563 µM
same,Serratia marcescens (IMP-1) MITC95,[2],1.563 µM
"Nc1nc2c(-c3ccc(S(=O)(=O)N[C@@H]4CNC[C@@H]4N)c(S(N)(=O)=O)c3-c3nn[nH]n3)cccc2[nH]1 [Example 240, 4-(2-amino-1H-benzo[d]imidazol-4-yl)-N^1-((3R,4S)-4-aminopyrrolidin-3-yl)-3-(2H-tetrazol-5-yl)benzene-1,2-disulfonamide]",Klebsiella pneumoniae (VIM-1) MITC95,[1],1.563 µM
same,Serratia marcescens (IMP-1) MITC95,[2],0.7813 µM
same,Efflux ratio,[3]; [4],1.00
"Nc1ccc(-c2ccc(S(=O)(=O)NC[C@H](N)CO)c(S(N)(=O)=O)c2-c2nn[nH]n2)cn1 [Example 297, (S)—N^1-(2-amino-3-hydroxypropyl)-4-(6-aminopyridin-3-yl)-3-(2H-tetrazol-5-yl) benzene-1,2-disulfonamide]",Klebsiella pneumoniae (VIM-1) MITC95,[1],1.563 µM
same,Serratia marcescens (IMP-1) MITC95,[2],0.7813 µM
same,Efflux ratio,[3]; [4],1.00
"NCc1csc(Nc2cccc(-c3ccc(S(=O)(=O)N[C@@H]4CCNC4)c(S(N)(=O)=O)c3-c3nn[nH]n3)c2)n1 [Example 290, (R)-3′-((4-(aminomethyl)thiazol-2-yl)amino)-N4-(pyrrolidin-3-yl)-2-(2H-tetrazol-5-yl)-[1,1′-biphenyl]-3,4-disulfonamide]",Klebsiella pneumoniae (VIM-1) MITC95,[1],0.7813 µM
same,Serratia marcescens (IMP-1) MITC95,[2],0.7813 µM
same,Efflux ratio,[3]; [4],2.00
"Nc1nc2c(-c3ccc(S(=O)(=O)NC[C@@H]4CCCN4)c(S(N)(=O)=O)c3-c3nn[nH]n3)cccc2[nH]1 [Example 262, (S)-4-(2-amino-1H-benzo[d]imidazol-4-yl)-N1-(pyrrolidin-2-ylmethyl)-3-(2H-tetrazol-5-yl)benzene-1,2-disulfonamide]",Klebsiella pneumoniae (VIM-1) MITC95,[1],0.7813 µM
same,Serratia marcescens (IMP-1) MITC95,[2],0.7813 µM
same,Efflux ratio,[3]; [4],1.00
"C[C@H](N)CNS(=O)(=O)c1ccc(-c2ccnc(N)c2)c(-c2nn[nH]n2)c1S(N)(=O)=O [Example 421, (S)-N^1-(2-aminopropyl)-4-(2-aminopyridin-4-yl)-3-(2H-tetrazol-5-yl)benzene-1,2-disulfonamide]",Klebsiella pneumoniae (VIM-1) MITC95,[1],1.563 µM
same,Serratia marcescens (IMP-1) MITC95,[2],0.7813 µM
"NCCNS(=O)(=O)c1ccc(-c2cccnc2N)c(-c2nn[nH]n2)c1S(N)(=O)=O [Example 358, N1-(2-aminoethyl)-4-(2-aminopyridin-3-yl)-3-(2H-tetrazol-5-yl)benzene-1,2-disulfonamide]",Klebsiella pneumoniae (VIM-1) MITC95,[1],1.563 µM
same,Efflux ratio,[3]; [4],2.00
"NC[C@H](O)CNS(=O)(=O)c1ccc(-c2ccc3nccn3c2)c(-c2nn[nH]n2)c1S(N)(=O)=O [Example 418, (S)-N^1-(3-amino-2-hydroxypropyl)-4-(imidazo[1,2-a]pyridin-6-yl)-3-(2H-tetrazol-5-yl)benzene-1,2-disulfonamide]",Klebsiella pneumoniae (VIM-1) MITC95,[1],1.563 µM
same,Serratia marcescens (IMP-1) MITC95,[2],0.7813 µM
"NC[C@H](N)CNS(=O)(=O)c1ccc(-c2cccc3[nH]c(N)nc23)c(-c2nn[nH]n2)c1S(N)(=O)=O [Example 370, (S)-4-(2-amino-1H-benzo[d]imidazol-4-yl)-N1-(2,3-diaminopropyl)-3-(2H-tetrazol-5-yl)benzene-1,2-disulfonamide]",Klebsiella pneumoniae (VIM-1) MITC95,[1],1.563 µM
same,Efflux ratio,[3]; [4],1.00
"Nc1ccc(-c2ccc(S(=O)(=O)N[C@@H]3CCCNC3)c(S(N)(=O)=O)c2-c2nn[nH]n2)cn1 [Example 490, (R)-4-(6-aminopyridin-3-yl)-N1-(piperidin-3-yl)-3-(2H-tetrazol-5-yl)benzene-1,2-disulfonamide]",Klebsiella pneumoniae (VIM-1) MITC95,[1],3.125 µM
same,Serratia marcescens (IMP-1) MITC95,[2],1.563 µM
"NCCNS(=O)(=O)c1ccc(-c2cnc3cc[nH]c3c2)c(-c2nn[nH]n2)c1S(N)(=O)=O [Example 359, N1-(2-aminoethyl)-4-(1H-pyrrolo[3,2-b]pyridin-6-yl)-3-(2H-tetrazol-5-yl)benzene-1,2-disulfonamide]",Klebsiella pneumoniae (VIM-1) MITC95,[1],1.563 µM
same,Efflux ratio,[3]; [4],2.00
"NCCNc1ncccc1-c1ccc(S(=O)(=O)N[C@@H]2CCNC2)c(S(N)(=O)=O)c1-c1nn[nH]n1 [Example 459, (R)-4-(2-((2-Aminoethyl)amino)pyridin-3-yl)-N1-(pyrrolidin-3-yl)-3-(2H-tetrazol-5-yl)benzene-1,2-disulfonamide]",Klebsiella pneumoniae (VIM-1) MITC95,[1],1.563 µM
same,Serratia marcescens (IMP-1) MITC95,[2],1.563 µM
"C[C@@H](N)CNS(=O)(=O)c1ccc(-c2ccnc(N)c2)c(-c2nn[nH]n2)c1S(N)(=O)=O [Example 422, (R)-N^1-(2-aminopropyl)-4-(2-aminopyridin-4-yl)-3-(2H-tetrazol-5-yl)benzene-1,2-disulfonamide]",Klebsiella pneumoniae (VIM-1) MITC95,[1],1.563 µM
same,Serratia marcescens (IMP-1) MITC95,[2],0.7813 µM
"CN(C1CNC1)S(=O)(=O)c1ccc(-c2cccc3[nH]c(N)nc23)c(-c2nn[nH]n2)c1S(N)(=O)=O [Example 255, 4-(2-amino-1H-benzo[d]imidazol-4-yl)-N1-(azetidin-3-yl)-N1-methyl-3-(2H-tetrazol-5-yl)benzene-1,2-disulfonamide]",Klebsiella pneumoniae (VIM-1) MITC95,[1],0.7813 µM
same,Serratia marcescens (IMP-1) MITC95,[2],0.7813 µM
same,Efflux ratio,[3]; [4],2.00
"Cc1cc(-c2ccc(S(=O)(=O)NC[C@H](O)CN)c(S(N)(=O)=O)c2-c2nn[nH]n2)cnc1N [Example 477, (R)—N1-(3-amino-2-hydroxypropyl)-4-(6-amino-5-methylpyridin-3-yl)-3-(2H-tetrazol-5-yl)benzene-1,2-disulfonamide]",Klebsiella pneumoniae (VIM-1) MITC95,[1],1.563 µM
same,Serratia marcescens (IMP-1) MITC95,[2],0.7813 µM
"NC[C@@]1(NS(=O)(=O)c2ccc(-c3ccc(N)nc3)c(-c3nn[nH]n3)c2S(N)(=O)=O)CCNC1 [Example 487, (S)-N1-(3-(aminomethyl)pyrrolidin-3-yl)-4-(6-aminopyridin-3-yl)-3-(2H-tetrazol-5-yl)benzene-1,2-disulfonamide dihydrochloride]",Klebsiella pneumoniae (VIM-1) MITC95,[1],1.563 µM
same,Serratia marcescens (IMP-1) MITC95,[2],0.7813 µM
same,Efflux ratio,[3]; fold difference between efflux + (MB9798) and efflux − (MB9799) strains,1.00
"C[C@H](CN)NS(=O)(=O)c1ccc(-c2cccnc2NCCN)c(-c2nn[nH]n2)c1S(N)(=O)=O [Example 460, (R)-4-(2-((2-aminoethyl)amino)pyridin-3-yl)-N1-(1-aminopropan-2-yl)-3-(2H-tetrazol-5-yl)benzene-1,2-disulfonamide]",Klebsiella pneumoniae (VIM-1) MITC95,[1],1.563 µM
same,Serratia marcescens (IMP-1) MITC95,[2],1.563 µM
"Nc1ncc(-c2cccc(-c3ccc(S(=O)(=O)N[C@@H]4CCNC4)c(S(N)(=O)=O)c3-c3nnn[nH]3)n2)[nH]1 [Example 439, (R)-4-(6-(2-Amino-1H-imidazol-5-yl)pyridin-2-yl)-N^1-(pyrrolidin-3-yl)-3-(1H-tetrazol-5-yl)benzene-1,2-disulfonamide]",Klebsiella pneumoniae (VIM-1) MITC95,[1],1.563 µM
same,Serratia marcescens (IMP-1) MITC95,[2],1.563 µM
"NC[C@H](CO)NS(=O)(=O)c1ccc(-c2cccc3[nH]nnc23)c(-c2nn[nH]n2)c1S(N)(=O)=O [Example 407, (R)-N^1-(1-amino-3-hydroxypropan-2-yl)-4-(1H-benzo[d][1,2,3]triazol-4-yl)-3-(2H-tetrazol-5-yl)benzene-1,2-disulfonamide]",Klebsiella pneumoniae (VIM-1) MITC95,[1],3.125 µM
same,Serratia marcescens (IMP-1) MITC95,[2],1.563 µM
"NCC(CN)NS(=O)(=O)c1ccc(-c2cccc3ccc(N)nc23)c(-c2nn[nH]n2)c1S(N)(=O)=O [Example 430, 4-(2-aminoquinolin-8-yl)-N1-(1,3-diaminopropan-2-yl)-3-(2H-tetrazol-5-yl)benzene-1,2-disulfonamide]",Klebsiella pneumoniae (VIM-1) MITC95,[1],1.563 µM
same,Serratia marcescens (IMP-1) MITC95,[2],1.563 µM
"Nc1nc(-c2cccc(-c3ccc(S(=O)(=O)N[C@H]4CNC[C@H]4N)c(S(N)(=O)=O)c3-c3nn[nH]n3)c2)c[nH]1 [Example 327, 3′-(2-amino-1H-imidazol-4-yl)-N4-((3S,4R)-4-aminopyrrolidin-3-yl)-2-(2H-tetrazol-5-yl)[1,1′-biphenyl]-3,4-disulfonamide]",Klebsiella pneumoniae (VIM-1) MITC95,[1],1.563 µM
same,Efflux ratio,[3]; [4],2.00
"C[C@@H](CN)NS(=O)(=O)c1ccc(-c2ccc(N)nc2)c(-c2nn[nH]n2)c1S(N)(=O)=O [Example 394, (S)-N^1-(1-aminopropan-2-yl)-4-(6-aminopyridin-3-yl)-3-(2H-tetrazol-5-yl)benzene-1,2-disulfonamide]",Klebsiella pneumoniae (VIM-1) MITC95,[1],3.125 µM
same,Serratia marcescens (IMP-1) MITC95,[2],1.563 µM
"C[C@@H](CN)NS(=O)(=O)c1ccc(-c2cccc3sc(N)nc23)c(-c2nn[nH]n2)c1S(N)(=O)=O [Example 389, 4-(2-amino-1,3-benzothiazol-4-yl)-N^1-[(1S)-2-amino-1-methylethyl]-3-(2H-tetrazol-S-yl)benzene-1,2-disulfonamide]",Klebsiella pneumoniae (VIM-1) MITC95,[1],3.125 µM
same,Serratia marcescens (IMP-1) MITC95,[2],3.125 µM
